Test results from US20240041042A1, “1-(PYRIDYL)-5-AZINYLPYRAZOLE DERIVATIVES, AND THEIR USE FOR CONTROL OF UNDESIRED PLANT GROWTH” (Bayer Aktiengesellschaft, priority 2020, published 2024).
Like-named read-outs stand apart in the source and are kept apart here.

Assays:
Type in all cases: in vivo
Zea mays (ZEAMX) [1] = details: crop plant compatibility, effect vs untreated controls
Method in brief: (§1)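 Greenhouse crops in sandy loam sprayed post-emergence at the one-leaf stage, 2–3 weeks after sowing, with WP or EC formulations in water plus 0.5% additive at 600 l/ha. Damage rated visually about 3 weeks later versus untreated controls (0% = like control, 100% = dead); suffixes a–c denote different doses.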

Oryza sativa (ORYSA) [2] = details: crop plant compatibility, effect in comparison to untreated controls
Method in brief: as §1

[3] = test system: Triticum aestivum (TRZAS); details: crop plant compatibility, effect vs untreated controls
Method in brief: as §1

Zea mays (ZEAMX) [4] = details: pre-emergence, crop plant compatibility, in comparison to untreated controls
Method in brief: (§2)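 Crop injury rated visually in percent against untreated plants roughly 3 weeks after treatment (0% no effect, 100% plants dead). Compounds, as WP or EC with 0.5% additive in 600 l/ha water, were applied to the covering soil right after sowing; greenhouse growth. Suffixes a, b, c denote different dosages.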

Oryza sativa (ORYSA) [5] = details: pre-emergence, crop plant compatibility, in comparison to untreated controls
Method in brief: as §2

Glycine max (GLXMA) [6] = details: pre-emergence, crop plant compatibility, in comparison to untreated controls
Method in brief: as §2

[7] = test system: Triticum aestivum (TRZAS); details: pre-emergence, crop plant compatibility, in comparison to untreated controls
Method in brief: as §2

[8] = test system: Matricaria inodora (MATIN); assay: Pre-emergence herbicidal action against MATIN; details: dosage 320 g/ha
Method in brief: (§3)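 Pre-emergence soil-surface spray, WP/EC formulation, 0.5% additive, 600 l/ha water, rates of 320 g/ha or lower. Greenhouse, ~3 wk. Visual score, % of untreated control (100% = plants dead, 0% = like control).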

[9] = test system: Abutilon theophrasti (ABUTH); assay: Pre-emergence herbicidal action against ABUTH; details: Dosage column 320 g/ha (title prints 3200 g/ha); scored visually after about 3 weeks; 100% = plants have died
Method in brief: as §3

[10] = test system: Echinochloa crus-galli (ECHCG); assay: Pre-emergence herbicidal action against ECHCG; details: dosage 320 g/ha
Method in brief: as §3

Glycine max (GLXMA) [11] = assay: Post-emergence crop plant compatibility, GLXMA; details: for Post-emergence action against GLXMA in %: 80 g/ha, effect in comparison to untreated controls
Protocol: Seeds of monocotyledonous and dicotyledonous weeds and crop plants are placed in sandy loam in plastic or organic planting pots, covered with soil and cultivated in a greenhouse under controlled growth conditions. 2 to 3 weeks after sowing, the test plants are treated at the one-leaf stage. The compounds of the invention, formulated in the form of wettable powders (WP) or as emulsion concentrates (EC), are then sprayed onto the green parts of the plants as aqueous suspension or emulsion with addition of 0.5% additive at a water application rate of 600 l/ha (converted). After the test plants have been kept in the greenhouse under optimum growth conditions for about 3 weeks, the activity of the preparations is rated visually in comparison to untreated controls. For example, 100% activity=the plants have died, 0% activity=like control plants.
The observed effects on selected crop plants are reported here in comparison to the untreated controls (values in %). The appendices “a”, “b” and “c” give differentiation by dosage used with otherwise the same crop plants tested.

[12] = test system: Amaranthus retroflexus (AMARE); assay: Pre-emergence herbicidal action against AMARE; details: 320 g/ha, visual scoring after about 3 weeks vs untreated controls
Method in brief: as §3

Avena fatua (AVEFA) = assay: Pre-emergence herbicidal action against AVEFA; details: 320 g/ha, visual scoring after about 3 weeks vs untreated controls
Method in brief: as §3

Viola tricolor (VIOTR) [13] = assay: Pre-emergence herbicidal action against VIOTR; details: 320 g/ha, Viola tricolor
Method in brief: as §3

[14] = test system: Pharbitis purpurea (PHBPU); assay: Post-emergence herbicidal action against PHBPU; details: dosage 320 g/ha
Method in brief: (§4)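 Values are percent visual activity (0% like control, 100% plants dead) after about 3 weeks in the greenhouse. Treatment: post-emergence spray at one-leaf stage, 600 l/ha spray volume, 0.5% additive, doses 320 g/ha or lower.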

[15] = test system: Polygonum convolvulus (POLCO); assay: Pre-emergence herbicidal action against POLCO; details: dosage 320 g/ha
Method in brief: as §3

Brassica napus (BRSNW) = details: crop plant compatibility, in comparison to untreated controls
Method in brief: as §2

Viola tricolor (VIOTR) [16] = assay: Post-emergence herbicidal action against VIOTR; details: 320 g/ha
Method in brief: as §4

[17] = test system: Polygonum convolvulus (POLCO); assay: Post-emergence herbicidal action against POLCO; details: dosage 320 g/ha
Method in brief: as §4

[18] = test system: Amaranthus retroflexus (AMARE); assay: Post-emergence herbicidal action against AMARE; details: 320 g/ha, visual rating about 3 weeks after treatment
Method in brief: as §4

[19] = test system: Verconica persica (VERPE); assay: Post-emergence herbicidal action against VERPE; details: 320 g/ha, VERPE
Method in brief: as §4

[20] = test system: Verconica persica (VERPE); assay: Pre-emergence herbicidal action against VERPE; details: dosage 320 g/ha
Method in brief: as §3

Compound | Post-emergence action against ZEAMX in % (Zea mays (ZEAMX) [1]; 80 g/ha) [%] | Post-emergence action against ZEAMX in % (Zea mays (ZEAMX) [1]; 320 g/ha) [%] | Post-emergence action against ORYSA in % (Oryza sativa (ORYSA) [2]; 80 g/ha) [%] | Post-emergence action against ORYSA in % (Oryza sativa (ORYSA) [2]; 320 g/ha) [%] | Post-emergence action against TRZAS in % ([3]; 80 g/ha) [%] | Post-emergence action against TRZAS in % ([3]; 320 g/ha) [%] | Pre-emergence action against ZEAMX in % (Zea mays (ZEAMX) [4]; 80 g/ha) [%] | Pre-emergence action against ORYSA in % (Oryza sativa (ORYSA) [5]; 80 g/ha) [%] | Pre-emergence action against ORYSA in % (Oryza sativa (ORYSA) [5]; 320 g/ha) [%] | Pre-emergence action against GLXMA in % (Glycine max (GLXMA) [6]; 80 g/ha) [%] | Pre-emergence action against TRZAS in % ([7]; 80 g/ha) [%] | Post-emergence action against GLXMA in % (Glycine max (GLXMA) [11]) [%] | Pre-emergence action against VIOTR in % (Viola tricolor (VIOTR) [13]) [%] | Pre-emergence action against TRZAS in % ([7]; 320 g/ha) [%] | Pre-emergence action against BRSNW in % (Brassica napus (BRSNW); 80 g/ha) [%] | Post-emergence action against VIOTR in % (Viola tricolor (VIOTR) [16]) [%] | other results
O=C(CSc1nn(-c2ccccn2)c(-c2cncc(F)c2)c1Br)NC1CC1 [Example I-201] | 0 | 20 | 0 | 0 | 0 | 10 | 20 | 0 | 20 | 0 | 0 | 20 | – | – | – | – | Pre-emergence action against MATIN in % [8]: 80%; Pre-emergence action against ABUTH [9]: 80%; Pre-emergence action against ECHCG in % [10]: 90%
CCOC(=O)COc1nn(-c2ccccn2)c(-c2cncc(F)c2)c1Cl [Example I-147] | 0 | 20 | 0 | 0 | 0 | 20 | 0 | – | – | 0 | 0 | 0 | 90 | 20 | 0 | 90 | Pre-emergence action against AMARE in % [12]: 90%; Pre-emergence action against AVEFA in % (Avena fatua (AVEFA)): 80%; Post-emergence action against PHBPU in % [14]: 90%; Pre-emergence action against POLCO in % [15]: 90%; Pre-emergence action against GLXMA in % (Glycine max (GLXMA) [6]; 320 g/ha): 0%; Post-emergence action against POLCO in % [17]: 90%; Post-emergence action against AMARE in % [18]: 90%; Post-emergence action against GLXMA (Glycine max (GLXMA) [11]; 320 g/ha, effect vs untreated controls): 10%
CCOC(=O)COc1nn(-c2ccc(Br)c(C)n2)c(-c2cncc(F)c2)c1Br [Example I-161] | 10 | 10 | 0 | 0 | 0 | 10 | 20 | 0 | 0 | 0 | 0 | 0 | 90 | 20 | 10 | 80 | Post-emergence action against VERPE in % [19]: 80%; Pre-emergence action against ZEAMX in % (Zea mays (ZEAMX) [4]; 320 g/ha): 20%; Pre-emergence action against BRSNW in % (Brassica napus (BRSNW); 320 g/ha): 10%; Pre-emergence action against VERPE in % [20]: 80%
